From patent publication US10307406B2, “Methods and compositions for re-activating Epstein-Barr virus and screening compounds therefor” (The Wistar Institute of Anatomy and Biology, priority 2013, dated 2019)
Like-named read-outs stand apart in the source and are kept apart here.

What was measured:
Mutul-Hp-Luc cells [1] = assay: microbe, parasite or virus in culture; type: cell-based, Epstein-Barr Virus (EBV)
Excerpt: BHLF1 promoter (Hp) or the BZ1F1 promoter (Zp) was cloned into pHEBO plasmid into Nhel and HindIII restriction sites of pHEBO-luc plasmid (Yates, 1985, Nature, 313:812-815; and Deng, 2001, J. Virol. 75:10334-10347). To create pHEBO-GFP, most of luciferase gene was excised by BsrGI and HindIII sites and replaced with EGFP excised from pEGFP-N1 (Clontech). Mutul cells were transfected with the new pHEBO-Zp-luc, pHEBO-Hp-luc (FIG. 8) or pHEBO-Hp-GFP constructs and transfected cells were selected with 400 μg/mL of Hygromycin. After 2 weeks of selection, stable hygromycin-resistant cells were seeded at 5000 per well in 384 well white plates and assayed as described below.
Columns 1, 2, 23, and 24 received DMSO (0.2% final concentration). The remaining 320 wells in columns 3-22 received test compounds at a final concentration of 10 μM cumulative concentration for the 5 compounds/2 μM individual compound concentration/0.2% final DMSO concentration. Cells were incubated with compounds for 48 h at 37° C./5% CO2. Twenty microliters of Steady-Glo® Luciferase Reagent (Promega) was added to assay plates and incubated for 15 minutes at room temperature. Plates were centrifuged and luminescence was measured on an EnVision® Excite multilabel microplate reader, using the ultrasensitive luminescence measurement technology (Perkin Elmer).
To confirm the activity of candidate compounds identified after deconvolution that exceeded the cutoff parameter, liquid stock from the screening library was retested as single compounds at a final concentration of 10 μM, using assay conditions identical to the primary high-throughput screen.
To eliminate confirmed actives that may interfere with the assay technology by inhibiting luciferase, the activity of the compounds were tested in a biochemical luciferase assay counterscreen (Auld, 2008, J. Med. Chem., 51:2372-2386). To quantitatively assess the activity and prioritize compounds for further follow-up, fresh liquid stocks prepared from powders were reformatted as a 10 point dilution series spanning at least 3-logs, starting at 10 μM, the initial screening concentration. Data for test compounds was normalized to DMSO and NaB (1 mM) plate controls to calculate fold stimulation and z-factor (σ is variance/standard deviations), μ is mean of positive (p) and negative (n) controls). Z-factor is a statistical measurement that assesses the quality of the assay and predicts if the assay can be useful in a high-throughput screening. Z factors above 0.5 are considered acceptable. The screen's Z-factor was above 0.
The relative EC50 for each compound, i.e., the concentration of compound that produced 50% of the maximum effect, was calculated using a […] non-linear regression analysis (GraphPad Prism® 6 software). Error bars represent SD for each concentration of a compound. To assist with decision making points, compound activities were stratified into 4 categories: […]

Mutul cells = assay: cell viability by trypan blue dye exclusion, with or without GCV; type: cell-based; conditions: 6 days, compounds at 1 μM
Protocol: Mutul-Hp-Luc were seeded at 0.2 million per mL and treated with Compound 4. Compound 4 was added again 48 h. Freshly made GCV was added on Day 2 for 4 days twice a day, in the morning and 8 h later. Cell viability was measured either with Resazurin 5 days after the first Compound 4 treatment, or the cells were stained with Trypan blue on Day 6. […] Live cells were counted by the Trypan Blue stain exclusion method. […] Different concentrations of Compound 4 combined with GCV (gray bars) or without GCV (black bars) were used. Cell viability was measured as a percentage of DMSO-treated control cells. 590 nm fluorescence values are proportionate to the cell viability. […] Daily viability assay for Mutul cells treated with either DMSO, NaB, compound 4 (0.5 μM) with or without GCV was measured.
It was tested whether combination of the newly identified activators and GCV would increase selective cell killing of EBV infected cells. […] Specifically, gangcyclovir (GCV) was combined with a sublethal dose of compounds (1 μM) to determine if it could induce cell death in Mutul cells after six days of treatment. Cell viability was measured by trypan blue dye exclusion.

[2] = test system: histone H3 acetylation in Mutul and Mutu-LCL352 cells; assay: immunoblot for acetylation of histone H3; type: cell-based; conditions: 48 h; 2 mM NaB or 1 μM compound
Protocol: (§1) FIGS. 7A-C are gels illustrating the mechanism of EBV reactivation of the compounds in distinct from HDAC inhibitors and TPA. FIG. 7A is Mutul cells treated with 2% DMSO, 2 mM NaB, 20 ng/mL TPA, or 1 μM compound for 48 h, immunoblotted, and probed for acetylation of histone H3 and β-actin. FIG. 7B is Mutu-LCL352 cells treated and probed as in described in FIG. 7A. FIG. 7C is Mutul cells treated with controls or compounds for 0.5 h, immunoblotted, and probed for phosphorylated forms of p90RSK, p53, p38MAPK, S6, total MAPK, and β-actin.
Mutul and Mutu-LCL352 cell lines were used to test whether the newly identified EBV activators function as […] by increasing acetylation on histone H3.

Mutul-Hp-Luc cells [3] = type: cell-based, Epstein-Barr Virus (EBV)
latent EBV = conditions: cited from earlier work
[4] = in vivo; cited from earlier work
EBV positive Mutul cells = assay: resazurin cytotoxicity assay with or without GCV
Protocol: Mutul-Hp-Luc were seeded at 0.2 million per mL and treated with Compound 4. Compound 4 was added again 48 h. Freshly made GCV was added on Day 2 for 4 days twice a day, in the morning and 8 h later. Cell viability was measured either with Resazurin 5 days after the first Compound 4 treatment, or the cells were stained with Trypan blue on Day 6. […] Live cells were counted by the Trypan Blue stain exclusion method. […] Different concentrations of Compound 4 combined with GCV (gray bars) or without GCV (black bars) were used. Cell viability was measured as a percentage of DMSO-treated control cells. 590 nm fluorescence values are proportionate to the cell viability. Cells tested include EBV-positive Mutul (FIG. 6C), Akata (FIG. 6D), DG75 (FIG. 6E), and Mutu-LCL352 (FIG. 6F). Daily viability assay for Mutul cells treated with either DMSO, NaB, compound 4 (0.5 μM) with or without GCV was measured.
Assay plates were prepared by seeding 25,000 Mutul cells in 50 μL of RPMI supplemented with 15% FBS in 384 well tissue culture plates (Nunc). […] Cells were incubated for 5 days at 37° C./5% CO2 and viability was monitored by the addition of 20 μL of 500 μM resazurin (Sigma) and incubation for 4 h at 37° C. Plates were centrifuged and fluorescence intensity was measured at 590 nm on an Envision® Xcite multilabel microplate reader (Perkin Elmer). […]

[5] = test system: p38 MAPK, S6, p90RSK and p53 phosphorylation in Mutul cells; assay: immunoblot for phosphorylation of p38 MAPK, S6, p90RSK and p53; type: cell-based; conditions: 0.5 h
Protocol: as §1
Cells were incubated with DMSO, 2 mM sodium butyrate (NaB), […] 12-O-tetradecanoyl phorbol-13-acetate (TPA) or 1 μM of compounds for 72 h, washed in PBS once and lysed in 1×Laemmii buffer. Protein extract equivalent to 10^5 cells were loaded on 8-16% SDS-PAGE gels (Invitrogen) and transferred to nitrocellulose membranes (Millipore). Lytic reactivation was detected with a rabbit polyclonal anti-ZTA and mouse monoclonal anti-EA-D (Abcam) antibodies diluted in 5% evaporated milk and incubated with the membranes for 2 h at RT, or overnight at 4° C., followed by secondary anti-mouse or rabbit HRP-conjugated (Roche). Rabbit antibodies against phospho-p38 MAPK, -S6, -p90RSK and -p53 West Pico were mixed into a PathScan® cocktail (Cell Signaling). […]

EBV positive BL cells = conditions: cited from earlier work
[6] = human gammaherpesvirus 4, read-out: EC50 values
[7] = Mutul-Hp-Luc cells, up to 2 mM NaB

COC(=O)c1ccccc1NC(=O)N1CCc2c([nH]c3ccc(Cl)cc23)C1c1ccc(OC)cc1 (centres unmarked) [Compound 10]
EC50 (Mutul-Hp-Luc cells [1]; human gammaherpesvirus 4, 48 h): < 500 nM
EC50 (Mutul-Hp-Luc cells [1]; [6]): 50 to 200 nM

COc1ccc(C2NCCc3c2[nH]c2ccc(Cl)cc32)cc1 (centres unmarked) [Compound 11]
EC50 (Mutul-Hp-Luc cells [1]; human gammaherpesvirus 4, 48 h): < 500 nM

COc1ccc(C2c3[nH]c4ccc(Cl)cc4c3CCN2C(=O)c2cccc(OC)c2)cc1 (centres unmarked) [Compound 12]
EC50 (Mutul-Hp-Luc cells [1]; human gammaherpesvirus 4, 48 h): < 500 nM
EC50 (Mutul-Hp-Luc cells [1]; [6]): 50 to 200 nM

COc1ccc(C2c3[nH]c4ccc(Cl)cc4c3CCN2C(=O)c2ccccc2F)cc1 (centres unmarked) [Compound 13]
EC50 (Mutul-Hp-Luc cells [1]; human gammaherpesvirus 4, 48 h): > 500 nM

COc1ccc(C2c3[nH]c4ccc(Cl)cc4c3CCN2C(=O)c2ccccc2Cl)cc1 (centres unmarked) [Compound 14]
EC50 (Mutul-Hp-Luc cells [1]; human gammaherpesvirus 4, 48 h): > 500 nM

COc1ccc(C2c3[nH]c4ccc(Cl)cc4c3CCN2C(=O)c2c(Cl)cccc2Cl)cc1 (centres unmarked) [Compound 15]
EC50 (Mutul-Hp-Luc cells [1]; human gammaherpesvirus 4, 48 h): > 500 nM

COc1ccc(C2c3[nH]c4ccc(Cl)cc4c3CCN2C(=O)c2ccccc2C(F)(F)F)cc1 (centres unmarked) [Compound 16]
EC50 (Mutul-Hp-Luc cells [1]; human gammaherpesvirus 4, 48 h): > 500 nM

COc1ccc(C2c3[nH]c4ccc(Cl)cc4c3CCN2C(=O)c2ccccc2OC)cc1 (centres unmarked) [Compound 17]
EC50 (Mutul-Hp-Luc cells [1]; human gammaherpesvirus 4, 48 h): > 500 nM

COc1ccc(C2c3[nH]c4ccc(Cl)cc4c3CCN2C(=O)c2ccc(F)cc2)cc1 (centres unmarked) [Compound 18]
EC50 (Mutul-Hp-Luc cells [1]; human gammaherpesvirus 4, 48 h): > 500 nM

COc1ccc(C2c3[nH]c4ccc(Cl)cc4c3CCN2C(=O)c2ccc(Cl)cc2)cc1 (centres unmarked) [Compound 19]
EC50 (Mutul-Hp-Luc cells [1]; human gammaherpesvirus 4, 48 h): < 500 nM

COc1ccc(C2c3[nH]c4ccc(Cl)cc4c3CCN2C(=O)c2ccc(C(F)(F)F)cc2)cc1 (centres unmarked) [Compound 20]
EC50 (Mutul-Hp-Luc cells [1]; human gammaherpesvirus 4, 48 h): < 500 nM

COc1ccc(C(=O)N2CCc3c([nH]c4ccc(Cl)cc34)C2c2ccc(OC)cc2)cc1 (centres unmarked) [Compound 21]
EC50 (Mutul-Hp-Luc cells [1]; human gammaherpesvirus 4, 48 h): < 500 nM
EC50 (Mutul-Hp-Luc cells [1]; [6]): 50 to 200 nM

COc1ccc(C2c3c(c4cc(Cl)ccc4n3C(=O)c3ccc(F)cc3)CCN2C(=O)c2ccc(F)cc2)cc1 (centres unmarked) [Compound 22]
EC50 (Mutul-Hp-Luc cells [1]; human gammaherpesvirus 4, 48 h): < 500 nM
EC50 (Mutul-Hp-Luc cells [1]; [6]): 50 to 200 nM

COc1ccc(C2c3c(c4cc(Cl)ccc4n3C(=O)c3ccc(Cl)cc3)CCN2C(=O)c2ccc(F)cc2)cc1 (centres unmarked) [Compound 23]
EC50 (Mutul-Hp-Luc cells [1]; human gammaherpesvirus 4, 48 h): > 500 nM

COc1ccc(C2c3[nH]c4ccc(Cl)cc4c3CCN2S(=O)(=O)c2ccccc2OC)cc1 (centres unmarked) [Compound 25]
EC50 (Mutul-Hp-Luc cells [1]; human gammaherpesvirus 4, 48 h): > 500 nM

COc1ccc(C2c3[nH]c4ccc(Cl)cc4c3CCN2S(=O)(=O)c2ccc(OC)cc2)cc1 (centres unmarked) [Compound 26]
EC50 (Mutul-Hp-Luc cells [1]; human gammaherpesvirus 4, 48 h): > 500 nM

Nc1nc(O)c2ncn(COC(CO)CO)c2n1 [GCV, gancyclovir]
reduction of cell viability as single agent (Mutul cells): −10%

CCCC(=O)[O-].[Na+] [NaB, sodium butyrate]
acetylation of histone H3 [2]: caused histone acetylation in both cell lines
cell viability on longer exposure (Mutul-Hp-Luc cells [3]; 2 mM NaB, longer periods than 48 h): loss of cell viability
cell toxicity (Mutul-Hp-Luc cells [3]; [7]): relatively low cell toxicity
signal-to-background (Mutul-Hp-Luc cells [3]; [7]): 20-40 fold
luciferase response to NaB (Mutul-Hp-Luc cells [3]; pHEBO-Hp-Luc in Mutul cells, 2 mM NaB vs DMSO): > 20 fold
concentrations required to trigger the latent to lytic switch (latent EBV): millimolar concentrations
pharmacokinetics [4]: unsuitable pharmacokinetics
synergy with GCV on killing EBV-positive cells (EBV positive Mutul cells; Mutul cells, combination with 10 μg/mL GCV): did not synergize with GCV
toxicity to cells (EBV positive Mutul cells; with or without GCV, daily resazurin): toxic to cells regardless of EBV positive status

CCCCCCCCCCCCCC(=O)O[C@@H]1[C@@H](C)[C@@]2(O)[C@@H](C=C(CO)C[C@]3(O)C(=O)C(C)=C[C@@H]23)[C@@H]2C(C)(C)[C@]12OC(C)=O [TPA, 12-O-tetradecanoyl phorbol-13-acetate]
phosphorylation of p38 MAPK, S6, p90RSK and p53 [5]: increase in phosphorylation

CC(C)C[C@H](NC(=O)[C@H](Cc1ccccc1)NC(=O)c1cnccn1)B(O)O [bortezomib]
activation of latent EBV (EBV positive BL cells): activator of latent EBV in a limited number of EBV positive BL cells

arginine butyrate
concentrations required to trigger the latent to lytic switch (latent EBV): millimolar concentrations
efficacy in clinical trial [4]: efficacious
tolerability in clinical trial [4]: not tolerated due to toxicity
